This note sets out measurements from PubChem BioAssay (NCI).

Test systems include CAKI-1 renal; CCRF-CEM leukemia; 786-0 renal; NCI-H23 lung; RPMI-8226 leukemia; SK-MEL-5 melanoma; IGROV1 ovarian; SF-268 CNS; SNB-19 CNS; A498 renal.
What all share (assay): inhibition of tumour cell growth, NCI panel, 48 h

The structures appear in SMILES notation.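 Method: 48-hour compound exposure of cells in 96-well plates, five concentrations, linear interpolation of endpoints. At the GI50, growth is halved. TGI: concentration producing complete growth inhibition.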

With `CN(C)CCNc1nc2ccccc2c2occc12`, the GI50 is 52.7 µM in the test with CAKI-1 renal; 20.9 µM in the test with CCRF-CEM leukemia; 62 µM in the test with 786-0 renal; 69.5 µM in the test with NCI-H23 lung; 58 µM in the test with RPMI-8226 leukemia; 14.5 µM in the test on SK-MEL-5 melanoma. In addition, the GI50 with IGROV1 ovarian was 34.1 µM; in the test on SF-268 CNS, 46.6 µM; in the test on SNB-19 CNS, 71.7 µM; with A498 renal, 48.5 µM. The TGI is over 100 µM in the test with CAKI-1 renal; over 100 µM in the test on CCRF-CEM leukemia; over 100 µM with 786-0 renal; over 100 µM in the test on NCI-H23 lung; over 100 µM in the test on RPMI-8226 leukemia; 32.2 µM in the test on SK-MEL-5 melanoma. Besides, the TGI with IGROV1 ovarian is 89.6 µM; in the test on SF-268 CNS, over 100 µM; in the test on SNB-19 CNS, over 100 µM; in the test with A498 renal, 81.6 µM.

On to `N=C(N)SCc1ccc([N+](=O)[O-])cc1[N+](=O)[O-]`, for which the GI50 with CAKI-1 renal is 4.86 µM; in the test on CCRF-CEM leukemia, 3.77 µM; in the test on 786-0 renal, 11.8 µM; in the test with NCI-H23 lung, 10.6 µM; in the test on RPMI-8226 leukemia, 5.26 µM; in the test on SK-MEL-5 melanoma it was 6.38 µM. Further, the GI50 in the test with IGROV1 ovarian is 4.33 µM; in the test with SF-268 CNS, 13.9 µM; in the test with SNB-19 CNS it was 26 µM; in the test on A498 renal, 29.9 µM. Moreover, the TGI in the test with CAKI-1 renal was 15.8 µM; in the test with CCRF-CEM leukemia, over 100 µM; with 786-0 renal, 27.8 µM; with NCI-H23 lung, 36.2 µM; in the test with RPMI-8226 leukemia, 72.2 µM; with SK-MEL-5 melanoma, 19.6 µM. The TGI with IGROV1 ovarian was 15.3 µM; in the test on SF-268 CNS it was 69.8 µM; with SNB-19 CNS it was 79 µM; in the test on A498 renal, 66.6 µM.

For the compound `C[C@]12CC[C@@H]3c4ccc(O)cc4CC[C@H]3[C@@H]1CC[C@@H]2NS(=O)(=O)c1ccc2ccccc2c1`, the GI50 is 3.16 µM in the test on CAKI-1 renal; 2.94 µM with CCRF-CEM leukemia; 2.96 µM in the test on 786-0 renal; 3.34 µM in the test with NCI-H23 lung; 2.93 µM in the test on RPMI-8226 leukemia; 1.78 µM with SK-MEL-5 melanoma. Besides, the GI50 is 4.1 µM in the test on IGROV1 ovarian, 3.68 µM in the test on SF-268 CNS, 4.17 µM in the test on SNB-19 CNS and 1.72 µM in the test on A498 renal. In addition, the TGI in the test with CAKI-1 renal was 10.4 µM; in the test on CCRF-CEM leukemia it was over 100 µM; in the test on 786-0 renal, 8.9 µM; in the test on NCI-H23 lung, 14.8 µM; in the test on RPMI-8226 leukemia, 9.94 µM; in the test with SK-MEL-5 melanoma, 3.36 µM. Further, the TGI was 17.2 µM in the test with IGROV1 ovarian, 18.4 µM in the test with SF-268 CNS, over 100 µM in the test with SNB-19 CNS and 4.01 µM with A498 renal.

As for `CCCCCSC1C2C(=O)C(Br)=CC13CCNc1c(O)c4c5c(c13)=[N+]2CCC=5C=N4` (stereo not given), the GI50 was 2.47 µM with CAKI-1 renal; 1.01 µM in the test with CCRF-CEM leukemia; 2.7 µM with 786-0 renal; 1.33 µM in the test on NCI-H23 lung; 3.65 µM in the test with RPMI-8226 leukemia; 1.85 µM in the test on SK-MEL-5 melanoma. The GI50 is 0.913 µM in the test on IGROV1 ovarian, 2.1 µM in the test on SF-268 CNS, 2.69 µM with SNB-19 CNS and 3.01 µM in the test on A498 renal. Moreover, the TGI worked out at 4.79 µM in the test on CAKI-1 renal; 11.6 µM with CCRF-CEM leukemia; 5.12 µM in the test with 786-0 renal; 6.21 µM in the test with NCI-H23 lung; 11 µM with RPMI-8226 leukemia; 3.96 µM with SK-MEL-5 melanoma. In addition, the TGI was determined as 3.61 µM in the test on IGROV1 ovarian, 5.34 µM in the test on SF-268 CNS, 4.97 µM with SNB-19 CNS and 6.61 µM with A498 renal.

Turning to `COc1ccc(C#CC2=C(c3cc(OC)c(OC)c(OC)c3)C(=O)OC2)cc1`, the GI50 with CAKI-1 renal is 1.18 µM; with CCRF-CEM leukemia it was 1.03 µM; in the test on 786-0 renal it was 4.94 µM; in the test on NCI-H23 lung, 5.77 µM; with RPMI-8226 leukemia it was 1.21 µM; with SK-MEL-5 melanoma, 2.07 µM. Besides, the GI50 with IGROV1 ovarian is 13.9 µM; with SF-268 CNS, 2.23 µM; in the test on SNB-19 CNS it was 5.98 µM; in the test with A498 renal, 8.21 µM. In addition, the TGI in the test on CAKI-1 renal was 2.99 µM; with CCRF-CEM leukemia, over 50 µM; in the test with 786-0 renal, over 50 µM; in the test on NCI-H23 lung, 17.3 µM; in the test with RPMI-8226 leukemia, 3.56 µM; in the test with SK-MEL-5 melanoma, 11.9 µM. In addition, the TGI is over 50 µM with IGROV1 ovarian, over 50 µM in the test with SF-268 CNS, over 50 µM with SNB-19 CNS and 30.1 µM in the test with A498 renal.

As for `FC(F)(F)c1[nH]ncc1-c1nc2ccc3[nH]ncc3c2c2c1CCCC2`, the GI50 in the test on CAKI-1 renal was 1.06 µM; in the test with CCRF-CEM leukemia, 2.15 µM; in the test on 786-0 renal, 1.55 µM; in the test with NCI-H23 lung it was 1.52 µM; in the test with RPMI-8226 leukemia it was 1.42 µM; in the test on SK-MEL-5 melanoma, 1.55 µM. The GI50 with IGROV1 ovarian is 0.942 µM; in the test on SF-268 CNS, 1.73 µM; in the test on SNB-19 CNS, 2.64 µM; in the test with A498 renal it was 1.17 µM. Moreover, the TGI in the test with CAKI-1 renal was 10.4 µM; in the test with CCRF-CEM leukemia, 10.7 µM; in the test with 786-0 renal it was 4.08 µM; in the test on NCI-H23 lung, 4.32 µM; with RPMI-8226 leukemia it was 6.66 µM; with SK-MEL-5 melanoma, 2.96 µM. For the same compound, the TGI in the test with IGROV1 ovarian is 5 µM; with SF-268 CNS, 4.72 µM; with SNB-19 CNS it was 9.09 µM; with A498 renal, 2.6 µM.

As for `CC12CC(Sc3ccccc3N1)c1ccccc1O2` (stereo not given), the TGI in the test with CAKI-1 renal came out at 42.4 µM; in the test with CCRF-CEM leukemia, 36.5 µM; in the test on 786-0 renal, 31.6 µM; in the test on NCI-H23 lung, 29.8 µM; in the test with RPMI-8226 leukemia, 48 µM; in the test on SK-MEL-5 melanoma, 28 µM. Also, the TGI is 48.6 µM in the test on IGROV1 ovarian, 30.4 µM in the test with SF-268 CNS, 30 µM in the test on SNB-19 CNS and 33 µM with A498 renal.

As to `Oc1c(CNCCNCc2cc(Cl)cc(Cc3ccccc3)c2O)cc(Cl)cc1Cc1ccccc1`, the GI50 in the test with CAKI-1 renal was 0.338 µM; in the test on CCRF-CEM leukemia, 0.127 µM; in the test with 786-0 renal, 0.375 µM; with NCI-H23 lung, 0.668 µM; in the test with RPMI-8226 leukemia, 0.695 µM; with SK-MEL-5 melanoma it was 0.302 µM. The GI50 in the test with IGROV1 ovarian was 0.475 µM; in the test on SF-268 CNS, 0.224 µM; in the test with SNB-19 CNS, 0.701 µM; with A498 renal it was 1.22 µM. Besides, the TGI was found to be 18.7 µM in the test on CAKI-1 renal; 24.4 µM in the test on CCRF-CEM leukemia; 10.4 µM in the test on 786-0 renal; 17.6 µM with NCI-H23 lung; 6.39 µM in the test with RPMI-8226 leukemia; 1.91 µM in the test on SK-MEL-5 melanoma. Moreover, the TGI with IGROV1 ovarian was 16.3 µM; with SF-268 CNS it was over 100 µM; in the test with SNB-19 CNS, over 100 µM; in the test with A498 renal, 8.88 µM.
